Assays:
[1] = Inhibition of constitutively active VCAMss-Gluc secretion in human Flp-In-T-REx-293 cells measured by Gaussia luciferase reporter gene method; format: functional, cell-based
[2] = Inhibition of constitutively active PR1ss-Gluc secretion in human Flp-In-T-REx-293 cells measured by Gaussia luciferase reporter gene method; format: functional, cell-based

Structure (SMILES)	IC50 [1] [µM]	IC50 [2] [µM]
CC(C)(C)c1csc(NC(=O)Cc2cn(CC3CCCCC3)c3ccc(Cl)cc23)n1	0.714	> 25
CC(C)CC(C(=O)Nc1nc(C(C)(C)C)cs1)c1csc2ccc(Cl)cc12 (stereo not given)	6.53	> 25
CC(C)(C)c1csc(NC(=O)Cc2c[nH]c3ccccc23)n1	> 25	> 25
CC(C)(C)c1csc(NC(=O)[C@H](O)c2cccc(Cl)c2)n1	> 25	> 25
C=CCC(C)(C)c1csc(NC(=O)Cc2csc3ccc(Cl)cc23)n1	0.775	> 25
CC(C)(C)c1csc(NC(=O)Cc2csc3ccc(-c4ccccc4)cc23)n1	4.57	> 25
Cc1cccc2scc(CC(=O)Nc3nc(C(C)(C)C)cs3)c12	3.2	> 25
CC(C)(C)c1csc(NC(=O)Cc2cc(F)cc(Cl)c2)n1	1.91	> 25
CC(C)(C)c1csc(NC(=O)Cc2cn(Cc3ccc(Cl)cc3)c3ccc(Cl)cc23)n1	0.325	> 25
CC(C)(C)c1csc(NC(=O)Cc2cccc3ccccc23)n1	3.45	> 25
CC(C)(C)c1csc(NC(=O)CCc2csc3ccccc23)n1	23.1	> 25
CC(C)(C)c1csc(NC(=O)Cc2ccc3cn[nH]c3c2)n1	> 25	> 25
CC(C)(CCO)c1csc(NC(=O)Cc2csc3ccc(Cl)cc23)n1	> 25	> 25
CC(C)(C)c1csc(NC(=O)Cc2cn(Cc3cccc(Cl)c3)c3ccc(Cl)cc23)n1	0.464	> 25
CC(C)(C)c1csc(NC(=O)Cc2coc3ccccc23)n1	5.3	> 25
CC(C)(C)c1csc(NC(=O)Cc2ccc3ccccc3c2)n1	15	> 25
Cn1cc(CC(=O)Nc2nc(C(C)(C)C)cs2)c2ccccc21	4.51	> 25
Cc1ccc(CC(=O)Nc2nc(C(C)(C)C)cs2)c(C)c1	7.45	> 25

Structure (SMILES)	IC50 [1] [µM]	IC50 [2] [µM]
CC(C)(C)c1csc(NC(=O)C(Cc2ccccc2)c2csc3ccc(Cl)cc23)n1 (stereo not given)	3.92	> 25
CC(C)(C)c1csc(NC(=O)Cc2cn(C(=O)c3ccccc3)c3ccc(Cl)cc23)n1	2.05	> 25
CC(C)(C)c1csc(NC(=O)CC2CCCCCC2)n1	5.07	> 25
CC1(c2csc(NC(=O)Cc3cn(Cc4ccccc4)c4ccc(Cl)cc34)n2)CC1	0.908	> 25
CC(C)(C)c1csc(NC(=O)Cc2cc(Cl)cc(C(F)(F)F)c2)n1	1.54	> 25
CC(C)(C)c1csc(NC(=O)Cc2cn(Cc3ccccn3)c3ccc(Cl)cc23)n1	2.08	> 25
CC(C)(C)c1csc(NC(=O)Cc2cc(F)c(F)c(F)c2)n1	8.18	> 25
Cc1cc(C(=O)Nc2nc(C(C)C)cs2)cs1	22.8	–
CC(C)(C)c1csc(NC(=O)Cc2cccnc2)n1	> 25	> 25
Cn1cc(C(=O)Nc2nc(C(C)(C)C)cs2)cn1	22.2	–
CC(C)(C)c1csc(NC(=O)Cc2cn(Cc3cccnc3)c3ccc(Cl)cc23)n1	3.67	> 25
CC(C)(C)c1csc(NC(=O)C(C)(C)C2CCCCC2)n1	9.01	> 25
CC(C)(C)c1csc(NC(=O)Cc2csc3ccc(Br)cc23)n1	1.4	> 25
CC(C)(C)c1csc(NC(=O)CC2CCCc3ccccc32)n1 (stereo not given)	9.01	> 25
CC(C)(C)c1csc(NC(=O)Cc2cc3ccccc3s2)n1	> 25	> 25
COCCC(C)(C)c1csc(NC(=O)Cc2csc3ccc(Cl)cc23)n1	> 25	> 25
CC(C(=O)Nc1nc(C(C)(C)C)cs1)c1csc2ccc(Cl)cc12 (stereo not given)	3.21	> 25
CC(C)(C)c1csc(NC(=O)CC2CCOCC2)n1	> 25	> 25

From ChEMBL document CHEMBL5050843, “Amide substituted thiazoles as protein secretion inhibitors” (2019)
